In ChEMBL document CHEMBL1201862, “PubChem BioAssay data set” (2004):
The source made the active and inactive calls. For most assays here, no stated cut-off is given here; in the data, actives have a measured EC50 and inactives only a lower limit.

Assays:
[1] = Luminescence Cell-Based Dose Response HTS to Identify Inhibitors of 5'UTR Stem-Loop Driven Prion Protein mRNA Translation in H4 Neuroglioblastoma Cells. [Related pubchem assays: 1827 (Project Summary), 1813 (Primary HTS)]; format: functional
[2] = inhibitors of firefly luciferase expression or activity, dose response, H4 neuroglioma cells, luminescence (AID 1990); format: functional, cell-based
[3] = molecular target: Voltage-dependent T-type calcium channel subunit alpha-1H (Homo sapiens, UniProt O95180); format: functional;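 further: channel activity triggered by adding a high calcium stimulation buffer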
[4] = cytotoxicity in HPDE-C7 cells, cell-based, fluorescence, HTS (AID 430); format: functional; conditions: Homo sapiens
[5] = cytotoxicity in KRAS-transformed pancreatic duct cells, primary screen, cell-based, fluorescence, HTS (AID 431); format: functional; conditions: Homo sapiens;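 further: cell line used: HPDE-C7K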
[6] = inhibitors of SNCA 5'UTR-driven reporter translation, confirmation, H4 neuroglioma cells, luminescence (AID 1988); format: functional, cell-based
[7] = A Cell Based Secondary Assay To Explore Cytotoxicity of Compounds that Sensitize Mycobacterium Tuberculosis to Beta-Lactam Antibiotics.; format: functional
Beta-galactosidase = Beta-galactosidase (Escherichia coli, UniProt Q8VNN2); test: PubChem AID 485352; format: functional
[8] = Luminescence Cell-Based Dose Response to Identify Activators of Luciferase Translation or Activity in H4-C Neuroglioblastoma Cells. [Related pubchem assays: 1829 (Project Summary), 1814 (Primary HTS)]; format: functional
Large T antigen = Large T antigen (Simian virus 40, UniProt P03070); format: functional, Betapolyomavirus macacae;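 further: Confirmatory-stage PubChem screen for compounds that inhibit SV40 T antigen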
[9] = Luminescence Cell-Based Dose Response HTS to Identify Activators of Luciferase Translation or Activity in H4 […] Cells. [Related pubchem assays: 1829 (Project Summary), 1814 (Primary HTS)]; format: functional
[10] = Luminescence Cell-Based Dose Response to Identify Activators of 5'UTR Stem-Loop Driven Prion Protein mRNA Translation in H4-C Neuroglioblastoma Cells. [Related pubchem assays: 1829 (Project Summary), 1814 (Primary HTS)]; format: functional
H4 = test: Luminescence Cell-Based Dose Response HTS to Identify Activators of 5'UTR Stem-Loop Driven Prion Protein mRNA Translation in H4 Neuroglioblastoma Cells. [Related pubchem assays: 1829 (Project Summary), 1814 (Primary HTS)]; format: functional; conditions: Homo sapiens
[11] = molecular target: T1, Type-1 angiotensin II receptor (Homo sapiens, UniProt P30556); test: AT1 receptor antagonists, dose response, selectivity assay for APJ receptor antagonist project, cell-based, uHTS hits (AID 463214); format: functional;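 further: antagonist potency against angiotensin II stimulated AT1 response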
T1 sequence (P30556 whole entry): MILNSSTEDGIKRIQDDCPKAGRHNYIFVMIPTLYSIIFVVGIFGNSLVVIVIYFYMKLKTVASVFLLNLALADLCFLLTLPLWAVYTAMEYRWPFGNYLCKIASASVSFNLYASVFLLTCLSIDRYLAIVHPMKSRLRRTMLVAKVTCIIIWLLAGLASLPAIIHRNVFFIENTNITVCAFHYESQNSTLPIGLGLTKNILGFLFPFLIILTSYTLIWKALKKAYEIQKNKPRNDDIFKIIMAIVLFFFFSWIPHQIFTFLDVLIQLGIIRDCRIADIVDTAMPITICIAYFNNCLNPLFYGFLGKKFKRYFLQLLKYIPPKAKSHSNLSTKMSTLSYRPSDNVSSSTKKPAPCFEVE

[12] = Luminescence Cell-Based Dose Confirmation to Identify Activators of 5'UTR Stem-Loop Driven Alpha-Synuclein mRNA Translation in H4 Neuroglioblastoma Cells. [Related pubchem assays: 1829 (Project Summary), 1814 (Primary HTS)]; format: functional
[13] = molecular target: T2, Replicative DNA helicase DnaB (Mycobacterium tuberculosis, UniProt P9WMR3); test: DnaB intein splicing inhibitors, dose response, biochemical, cell-free fluorescence (AID 449749); format: functional
T2 sequence (P9WMR3 whole entry): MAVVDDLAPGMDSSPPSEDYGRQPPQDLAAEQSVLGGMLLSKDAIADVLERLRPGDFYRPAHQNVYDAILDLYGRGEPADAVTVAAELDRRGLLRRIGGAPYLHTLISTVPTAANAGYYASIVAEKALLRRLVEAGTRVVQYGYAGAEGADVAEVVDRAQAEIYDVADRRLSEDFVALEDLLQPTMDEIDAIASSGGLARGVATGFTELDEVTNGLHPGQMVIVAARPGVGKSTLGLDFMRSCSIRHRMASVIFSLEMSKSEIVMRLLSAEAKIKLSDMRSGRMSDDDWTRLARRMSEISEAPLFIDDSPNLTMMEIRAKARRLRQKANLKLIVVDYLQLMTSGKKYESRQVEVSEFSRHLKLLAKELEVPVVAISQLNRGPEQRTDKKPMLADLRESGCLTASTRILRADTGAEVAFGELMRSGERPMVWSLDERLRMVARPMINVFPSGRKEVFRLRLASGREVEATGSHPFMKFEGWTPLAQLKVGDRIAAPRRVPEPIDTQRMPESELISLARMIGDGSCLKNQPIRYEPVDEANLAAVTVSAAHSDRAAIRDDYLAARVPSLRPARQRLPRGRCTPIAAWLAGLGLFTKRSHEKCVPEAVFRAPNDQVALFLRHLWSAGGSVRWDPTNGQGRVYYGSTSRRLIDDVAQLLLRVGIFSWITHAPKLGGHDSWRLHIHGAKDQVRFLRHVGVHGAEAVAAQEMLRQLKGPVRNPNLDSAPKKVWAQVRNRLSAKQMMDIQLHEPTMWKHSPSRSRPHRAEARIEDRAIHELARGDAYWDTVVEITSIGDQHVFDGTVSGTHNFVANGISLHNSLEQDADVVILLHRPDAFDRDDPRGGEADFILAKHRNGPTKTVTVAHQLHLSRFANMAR

[14] = Luminescence Cell-Based Dose Confirmation HTS to Identify Activators of 5'UTR Stem-Loop Driven Alpha-Synuclein mRNA Translation in H4 Neuroglioblastoma Cells. [Related pubchem assays: 1829 (Project Summary), 1814 (Primary HTS)]; format: functional
[15] = molecular target: T3, Microphthalmia-associated transcription factor (Homo sapiens, UniProt O75030); test: TRPM1 promoter luciferase signal decrease, dose response, MITF inhibitor project, cell-based, SK-MEL-5, cherry-picked, set 3 (AID 493073); format: functional
T3 sequence (O75030 whole entry): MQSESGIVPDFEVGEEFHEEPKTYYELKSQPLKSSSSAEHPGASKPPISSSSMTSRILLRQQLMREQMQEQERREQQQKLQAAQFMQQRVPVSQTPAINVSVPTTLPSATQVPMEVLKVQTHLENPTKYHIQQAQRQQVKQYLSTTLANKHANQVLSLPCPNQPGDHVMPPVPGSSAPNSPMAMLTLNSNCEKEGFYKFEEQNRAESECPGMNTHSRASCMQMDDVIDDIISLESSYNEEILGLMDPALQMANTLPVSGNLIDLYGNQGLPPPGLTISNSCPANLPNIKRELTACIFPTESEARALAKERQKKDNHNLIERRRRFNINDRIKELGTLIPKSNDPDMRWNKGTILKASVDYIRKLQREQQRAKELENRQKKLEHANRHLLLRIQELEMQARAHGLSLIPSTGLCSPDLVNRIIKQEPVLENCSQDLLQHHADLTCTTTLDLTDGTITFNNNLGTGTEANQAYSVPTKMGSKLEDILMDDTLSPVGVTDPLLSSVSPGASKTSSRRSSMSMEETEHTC

Protein RecA = molecular target: T4, Protein RecA (Mycobacterium tuberculosis, UniProt P9WHJ3); test: Fluorescence Cell-Free Homogeneous Dose Retest to Identify Inhibitors of RecA-Intein Splicing Activity. [Related pubchem assays (depositor defined):AID2097, AID2223, AID489010, AID492950]; format: functional
T4 sequence (P9WHJ3 whole entry): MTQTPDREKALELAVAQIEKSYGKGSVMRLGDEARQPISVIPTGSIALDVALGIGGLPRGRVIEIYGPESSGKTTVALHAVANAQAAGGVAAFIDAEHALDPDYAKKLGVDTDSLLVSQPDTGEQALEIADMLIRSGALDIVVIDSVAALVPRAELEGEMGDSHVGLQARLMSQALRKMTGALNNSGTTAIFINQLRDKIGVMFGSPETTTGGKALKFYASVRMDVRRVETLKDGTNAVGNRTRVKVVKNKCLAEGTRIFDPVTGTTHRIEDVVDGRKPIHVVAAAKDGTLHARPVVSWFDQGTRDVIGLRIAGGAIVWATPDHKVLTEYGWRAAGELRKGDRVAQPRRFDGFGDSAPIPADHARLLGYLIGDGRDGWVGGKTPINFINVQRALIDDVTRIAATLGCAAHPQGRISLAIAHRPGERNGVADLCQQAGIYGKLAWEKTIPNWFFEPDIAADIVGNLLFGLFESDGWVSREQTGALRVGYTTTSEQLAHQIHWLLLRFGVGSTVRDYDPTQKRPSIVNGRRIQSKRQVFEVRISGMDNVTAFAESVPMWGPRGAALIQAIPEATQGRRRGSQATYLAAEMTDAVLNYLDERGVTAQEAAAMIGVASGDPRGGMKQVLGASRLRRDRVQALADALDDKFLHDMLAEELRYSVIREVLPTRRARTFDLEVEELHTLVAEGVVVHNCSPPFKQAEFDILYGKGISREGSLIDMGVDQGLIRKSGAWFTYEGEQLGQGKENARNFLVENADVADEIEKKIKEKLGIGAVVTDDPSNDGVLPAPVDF

Sequence of Voltage-dependent T-type calcium channel subunit alpha-1H (O95180 whole entry): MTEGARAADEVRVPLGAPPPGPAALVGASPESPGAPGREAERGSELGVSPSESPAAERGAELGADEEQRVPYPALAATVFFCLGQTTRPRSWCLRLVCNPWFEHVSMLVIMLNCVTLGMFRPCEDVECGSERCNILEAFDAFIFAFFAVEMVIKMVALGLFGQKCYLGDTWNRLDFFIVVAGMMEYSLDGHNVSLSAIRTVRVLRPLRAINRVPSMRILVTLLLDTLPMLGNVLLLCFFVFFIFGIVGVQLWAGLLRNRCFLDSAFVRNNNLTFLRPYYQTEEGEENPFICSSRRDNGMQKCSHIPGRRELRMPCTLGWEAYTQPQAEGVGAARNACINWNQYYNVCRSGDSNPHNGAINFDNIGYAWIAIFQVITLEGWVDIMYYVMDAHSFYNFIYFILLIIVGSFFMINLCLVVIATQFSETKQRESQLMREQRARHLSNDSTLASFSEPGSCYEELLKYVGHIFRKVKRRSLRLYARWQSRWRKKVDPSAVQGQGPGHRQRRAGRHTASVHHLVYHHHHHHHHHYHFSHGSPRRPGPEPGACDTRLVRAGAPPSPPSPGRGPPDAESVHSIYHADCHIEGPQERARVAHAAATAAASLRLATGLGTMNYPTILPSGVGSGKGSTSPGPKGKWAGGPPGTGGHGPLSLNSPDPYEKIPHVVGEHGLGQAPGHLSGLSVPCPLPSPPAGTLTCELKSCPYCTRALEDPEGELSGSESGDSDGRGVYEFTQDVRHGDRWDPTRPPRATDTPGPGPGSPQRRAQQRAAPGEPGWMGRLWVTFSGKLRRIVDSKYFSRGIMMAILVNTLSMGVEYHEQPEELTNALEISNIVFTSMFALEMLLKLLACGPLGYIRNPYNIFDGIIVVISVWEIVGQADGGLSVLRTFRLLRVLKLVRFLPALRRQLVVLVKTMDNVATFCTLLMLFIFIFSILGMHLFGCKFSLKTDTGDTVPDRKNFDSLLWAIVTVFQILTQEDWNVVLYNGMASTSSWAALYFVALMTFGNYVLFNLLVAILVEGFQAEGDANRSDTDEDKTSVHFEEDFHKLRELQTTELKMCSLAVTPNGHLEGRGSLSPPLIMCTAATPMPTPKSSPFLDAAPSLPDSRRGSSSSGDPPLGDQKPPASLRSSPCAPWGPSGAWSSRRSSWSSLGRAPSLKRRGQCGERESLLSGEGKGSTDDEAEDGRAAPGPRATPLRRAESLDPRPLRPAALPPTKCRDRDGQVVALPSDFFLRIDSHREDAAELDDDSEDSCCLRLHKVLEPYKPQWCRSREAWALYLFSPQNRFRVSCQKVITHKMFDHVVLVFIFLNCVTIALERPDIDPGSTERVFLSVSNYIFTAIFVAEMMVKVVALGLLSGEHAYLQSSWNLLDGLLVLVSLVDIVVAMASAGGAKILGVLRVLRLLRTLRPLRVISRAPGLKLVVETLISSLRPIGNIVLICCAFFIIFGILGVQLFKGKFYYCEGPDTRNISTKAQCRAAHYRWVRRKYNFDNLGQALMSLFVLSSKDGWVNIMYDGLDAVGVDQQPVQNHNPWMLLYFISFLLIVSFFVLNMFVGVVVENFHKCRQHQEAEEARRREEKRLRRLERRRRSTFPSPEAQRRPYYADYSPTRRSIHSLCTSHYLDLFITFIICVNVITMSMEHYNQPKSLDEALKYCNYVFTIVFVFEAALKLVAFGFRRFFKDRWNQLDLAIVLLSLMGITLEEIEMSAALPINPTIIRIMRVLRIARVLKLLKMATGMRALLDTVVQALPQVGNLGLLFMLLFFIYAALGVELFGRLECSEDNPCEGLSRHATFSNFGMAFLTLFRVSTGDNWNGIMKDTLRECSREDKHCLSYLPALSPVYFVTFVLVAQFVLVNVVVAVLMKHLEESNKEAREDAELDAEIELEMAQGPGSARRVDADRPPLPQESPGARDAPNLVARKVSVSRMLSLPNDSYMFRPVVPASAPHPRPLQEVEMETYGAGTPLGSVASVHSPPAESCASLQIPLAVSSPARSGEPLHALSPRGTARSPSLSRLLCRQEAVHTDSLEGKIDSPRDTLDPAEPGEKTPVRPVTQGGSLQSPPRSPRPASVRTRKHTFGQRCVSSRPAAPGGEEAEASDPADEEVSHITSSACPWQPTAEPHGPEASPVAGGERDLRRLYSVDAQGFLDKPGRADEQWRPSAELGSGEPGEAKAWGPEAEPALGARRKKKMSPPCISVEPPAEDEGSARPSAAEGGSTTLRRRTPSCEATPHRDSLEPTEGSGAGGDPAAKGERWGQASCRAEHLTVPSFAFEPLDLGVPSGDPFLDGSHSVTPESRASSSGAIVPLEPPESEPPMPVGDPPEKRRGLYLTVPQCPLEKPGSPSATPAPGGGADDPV
Sequence of Large T antigen (P03070 whole entry): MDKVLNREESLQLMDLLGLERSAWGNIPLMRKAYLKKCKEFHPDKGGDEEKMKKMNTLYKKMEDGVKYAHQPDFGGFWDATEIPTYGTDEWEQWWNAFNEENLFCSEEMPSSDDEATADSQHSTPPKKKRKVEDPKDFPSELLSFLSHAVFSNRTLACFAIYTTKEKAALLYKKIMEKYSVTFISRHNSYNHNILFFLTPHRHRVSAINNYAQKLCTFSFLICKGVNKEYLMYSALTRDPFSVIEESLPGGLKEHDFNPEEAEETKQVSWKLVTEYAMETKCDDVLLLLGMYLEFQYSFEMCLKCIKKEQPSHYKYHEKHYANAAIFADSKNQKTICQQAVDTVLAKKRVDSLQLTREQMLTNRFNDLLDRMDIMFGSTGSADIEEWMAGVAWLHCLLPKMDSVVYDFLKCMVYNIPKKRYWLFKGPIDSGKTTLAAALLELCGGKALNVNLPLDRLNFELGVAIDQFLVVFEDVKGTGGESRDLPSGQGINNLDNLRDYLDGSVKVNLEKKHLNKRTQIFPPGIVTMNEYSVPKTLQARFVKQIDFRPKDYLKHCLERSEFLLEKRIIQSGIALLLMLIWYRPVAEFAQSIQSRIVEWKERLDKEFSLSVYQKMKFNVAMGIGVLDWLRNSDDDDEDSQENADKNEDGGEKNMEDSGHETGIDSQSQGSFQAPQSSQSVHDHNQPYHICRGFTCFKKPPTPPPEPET
Sequence of Beta-galactosidase (Q8VNN2 whole entry): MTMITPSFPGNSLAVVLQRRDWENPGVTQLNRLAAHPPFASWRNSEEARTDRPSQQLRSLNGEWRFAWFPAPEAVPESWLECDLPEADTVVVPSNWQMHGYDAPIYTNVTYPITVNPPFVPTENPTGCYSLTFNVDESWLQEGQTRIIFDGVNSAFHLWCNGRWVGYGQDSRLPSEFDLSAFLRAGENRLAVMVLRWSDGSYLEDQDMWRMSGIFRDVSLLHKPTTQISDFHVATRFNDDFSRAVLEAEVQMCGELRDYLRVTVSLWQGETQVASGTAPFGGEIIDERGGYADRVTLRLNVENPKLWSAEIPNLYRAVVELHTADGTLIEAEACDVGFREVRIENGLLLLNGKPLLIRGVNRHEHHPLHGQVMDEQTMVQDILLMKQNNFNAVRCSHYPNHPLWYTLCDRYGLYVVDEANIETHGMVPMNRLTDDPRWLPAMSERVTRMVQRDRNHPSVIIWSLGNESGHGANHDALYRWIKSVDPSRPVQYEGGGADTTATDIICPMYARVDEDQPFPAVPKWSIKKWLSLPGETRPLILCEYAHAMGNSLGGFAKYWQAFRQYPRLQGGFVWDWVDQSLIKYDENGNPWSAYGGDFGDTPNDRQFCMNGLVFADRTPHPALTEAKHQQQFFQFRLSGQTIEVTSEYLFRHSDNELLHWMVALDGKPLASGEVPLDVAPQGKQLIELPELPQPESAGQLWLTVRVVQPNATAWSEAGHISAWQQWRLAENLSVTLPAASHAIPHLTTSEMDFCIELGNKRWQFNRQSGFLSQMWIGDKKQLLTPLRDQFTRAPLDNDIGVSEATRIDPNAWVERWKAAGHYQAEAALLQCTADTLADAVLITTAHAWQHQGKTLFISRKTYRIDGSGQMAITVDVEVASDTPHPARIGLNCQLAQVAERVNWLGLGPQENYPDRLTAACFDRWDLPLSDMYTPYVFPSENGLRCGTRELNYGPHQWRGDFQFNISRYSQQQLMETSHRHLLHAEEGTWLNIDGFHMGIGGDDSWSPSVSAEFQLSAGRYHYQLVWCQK

| SMILES | EC50 [4] | EC50 [5] | EC50 [8] | EC50 [9] | EC50 [10] | EC50 (H4) | EC50 [12] | further results |
| --- | --- | --- | --- | --- | --- | --- | --- | --- |
| COc1cc(C)c(C(C)C)cc1S(=O)(=O)n1cnc(C)c1 | 3.47 µM (active) | 4.11 µM (active) | – | – | – | – | – | EC50 [1]: > 120 µM (not active); EC50 [2]: > 120 µM (not active); EC50 [3]: 52.3 µM (active); EC50 [6]: 9.12 µM (active) |
| COc1cc(C(=O)Nc2cccc(-c3cn4cccnc4n3)c2)cc(OC)c1OC | – | – | – | – | – | – | – | CC50 [7]: > 40 µM (active) |
| Cc1ccc(SSc2cc(C)ccc2N)c(N)c1 | – | – | 1.67 µM (active) | < 0.1 µM (inconclusive) | 1.21 µM (active) | 42.5 µM (inconclusive) | 5 µM (active) | EC50 (Beta-galactosidase): > 40 µM (inactive); IC50 (Large T antigen): 10.8 µM (active); IC50 [11]: > 40 µM (not active) |
| O=C(CCl)Nc1cccc(-c2cnc3ccccc3n2)c1 | – | – | 0.561 µM (active) | 2.98 µM (active) | > 12 µM (not active) | > 60 µM (not active) | 0.7 µM (active) | AC50 [13]: 53.1 µM (active); EC50 [14]: < 0.1 µM (active); AC50 [15]: 4.02 µM (active); EC50 (Protein RecA): 13.3 µM (active) |
| Cn1c(CCN2CCCCCC2)nc2cc(NC(=O)Nc3ccccc3)ccc21 | > 20 µM (not active) | > 20 µM (not active) | – | – | – | – | – | – |
